Results reported in US10865203B2, “Ligands selective to alpha 6 subunit-containing GABAA receptors and their methods of use” (UWM Research Foundation, Inc., priority 2015, dated 2020).
Entries after “also recorded” stand apart in the source; their conditions may differ.

Columns and labels:
[1] = system: c-Fos-ir neurons in the TNC of Wistar rats; experiment: Migraine model: capsaicin (i.c.)-induced neuronal activation in the TCC; format: in vivo, rat; conditions: i.p., capsaicin 10 nmol i.c., 2 hours after
Experimental: Intra-cisteral instillation of capsaicin. Under anesthesia with chloral hydrate (400 and 100 mg/kg, i.p., respectively, for inducing and maintaining), the rat received a midline skin incision from the occipital protuberance to the upper cervical area. After catheterization with a catheter (PE-10, SIMS Portex Ltd, Hythe, UK) inserted 3 mm deep into the cisterna magna, the rat was placed in a prone position for 6 h. Then, the capsaicin solution (10 nmol, 100 μL) was instilled through the catheter into the cisterna magna over 1 min. The rat was then placed in a reverse Trendelenburg position (−30 degrees) for 30 min in order to facilitate capsaicin distribution within the subarachnoid space, followed by the prone position for another 90 min. […]
Measurement of the total number of C-fos-ir neurons in the TCC. C-Fos-ir neurons, i.e., neurons with stained nuclei, were counted under a microscope (Olympus BX51, Essex, UK) by an observer blinded to the treatment group. […] The total number of c-Fos-ir TCC neurons were estimated based on the formular derived in our previous study (Fan et al., 2012): 16(N1+N2)/2+53(N2+N3)/2, where N1, N2, and N3 were the c-Fos-ir neuronal numbers measured at […] from the obex, respectively.

[2] = Pharmacokinetic study in mice, plasma and brain; format: in vivo, mouse; conditions: nanoemulsion
Experimental: Five pharmacokinetic studies have been performed; four in male Wistar rats and one in male Swiss mice. […] At predetermined time intervals, i.e., 5, 20, 60, 180, and 720 min after dosing, the blood and brain samples of the rat were collected. […] At predetermined time intervals, i.e., 5, 20, 40, 120, and 360 min, the blood and brain samples of the mouse were collected.

[3] = system: IoN-CCl Wistar rats; experiment: IoN-CCl neuropathic pain model, von Frey filaments; format: in vivo, rat
Experimental: Chronic constriction injury (CCl) is a common neuropathic pain model. The unilateral ligature of the infraorbital nerve (IoN) in rats, as an animal model of peripheral neuropathic pain, and more specifically, trigeminal neuralgia and trigeminal neuropathy, was performed as described by Desuere and Hans (Deseure et al. J. Vis. Exp. 2015, 103, e53167). Wistar rats (46 in total) were randomly assigned to one of four experimental groups and then were behaviorally tested in a blinded manner. For studying the effects of subchronic treatment with the nanoemulsion formulation of DK-I-56-1 in IoN-CCl rats, DK-I-56-1 (10 mg/kg i.p.) or its vehicle (placebo nanoemulsion i.p.) were injected daily for 14 consecutive days after surgery. Sham-operated rats were treated in parallel. By a procedure slightly modified from Djordjevic et al. (Int. J. Pharm. 2015, 493, 40-54), biocompatible nanoemulsions were prepared by high pressure homogenization at 50° C. […] First, the response to the application of a graded series of three von Frey filaments onto ipsilateral vibrissal pad was measured on pre-operative days −3 and −1 and post-operative days 7, 14, 21, and 28. […] The other parameter, face grooming during body grooming, was manually assessed during 10 min of recording on pre-operative day −2 and post-operative days 2, 4, 8, and 15 (i.e. after 1, 3, 7, and 14 applications of treatment). […]

COc1ccc(-n2nc3c4ccc(OC)cc4[nH]cc-3c2=O)cc1 [Compound 6, 7-Methoxy-2-(4-methoxyphenyl)-2,5-dihydro-3H-pyrazolo[4,3-c]quinolin-3-one]
number of c-Fos-ir neurons in the TNC induced by i.c. capsaicin [1]: significantly decreased; also recorded: reduces

[2H]C([2H])([2H])Oc1ccc(-n2nc3c4ccc(OC)cc4[nH]cc-3c2=O)cc1 [DK-I-56-1, 7-Methoxy-2-(4-methoxy-d3-phenyl)-2,5-dihydro-3H-pyrazolo[4,3-c]quinolin-3-one]
total concentrations in mouse brain ([2]; 10 mg/kg i.p.): submicromolar
maximum concentration in mouse brain ([2]; 30 mg/kg i.p.): 7.5 µmol/L
anti-allodynic effect, response score to von Frey filaments, post-operative days 14 and 21 ([3]; 10 mg/kg i.p. nanoemulsion daily for 14 days after surgery): statistically significant
anti-allodynic effect, post-operative day 28 ([3]; 14 days after the last dose): disappeared
